In brackets after ≈: the same amount, converted by molar mass. Read-outs that look alike come from different tables or passages of the source.
Key:
[1] = test system: SW948 colon carcinoma cells; assay: induction of early apoptosis (annexin V-FITC / propidium iodide, FACS); assay type: cell-based, human; conditions: SW948 in vitro, 4 days post-treatment (FIG. 10)
Description: 14. […] Floating and adherent cells were collected 4 days post-treatment. The treatments are described in the legend for FIG. 8. The cells were stained with annexin V-FITC and propidium iodide, then analyzed by FACS using CellQuest software (Beckton-Dickenson, San Diego, Calif.). Data points are the average±SEM of a representative experiment done in triplicate.

SW948CPTH cells [2] = assay: intracellular accumulation of CPT-11 (HPLC), effect of verapamil; assay type: cell-based, human; conditions: SW948CPTH vs parent SW948; CPT-11 160 μM, 2 hours, 37° C. (FIG. 6A)
Description: (§1) 10. […] Cells were washed, trypsinized, and counted. Cell pellets were lysed with water and sonicated. […] Results were generated from three independent experiments. […] Data are expressed as mean±SD. […] Data are the mean±SD of two experiments done in triplicate.
(§2) Additionally, multidrug resistance can be evaluated by measuring the expression level of p-glycoprotein (p-gp) (Juliano et al Biochim Biophys Acta 11:152-162, 1976) and breast cancer resistant protein (BCRP) (Doyle et al Proc Natl Acad Sci U S A 95:15665-15670, 1998) in SW948 and the resistant SW948 cell lines (SW948CPTH and SW948CPTL). It is understood that the disclosed methods can also be used with other cell lines including other colon cancer cell lines. For example, the disclosed methods can be used with LS174T, WiDr, HT-29, SW403, DLD-1, SW480, SNU-C1, Caco-2, and COLO 205 cell lines.

SW948CPTL cells [3] = assay: as above; assay type: cell-based, human; conditions: SW948CPTL vs parent SW948; CPT-11 160 μM, 2 hours, 37° C. (FIG. 6A)
Description: as §1, §2

SW948CPTL cells [4] = assay: clonogenic assay, CPT-11 IC50; assay type: cell-based; conditions: Homo sapiens, read-out: CPT-11 IC50
Method: 8. […] IC50 was determined using a clonogenic assay.

SW948CPTH cells [5] = assay: clonogenic assay, CPT-11 IC50; assay type: cell-based; conditions: Homo sapiens
Method: 7. […] IC50 was determined using a clonogenic assay.
Ten days later, the surviving fraction of the SW948 and SW948CPTH cells was determined.
The cells were then washed, fresh medium added, and plated for colony formation.

SW948CPTH cells [6] = assay: cell cycle analysis; assay type: cell-based, human
[7] = test system: SW948CPTH cell lines recovered from xenografts; assay: clonogenic assay on cell lines recovered from tumor xenografts; assay type: cell-based; conditions: Homo sapiens, cultured 2-4 weeks CPT-11-free
SW948CPTL cells [8] = assay: cell cycle analysis; assay type: cell-based, human
SW948 cells = assay: clonogenic cell survival assay, CPT-11 IC50; assay type: cell-based; conditions: Homo sapiens
Method: 81. […] Cells were then washed with PBS and cultured in fresh medium without CPT-11 and a colony formation assay initiated. Ten days later, the surviving fraction of the SW948 and SW948CPTH cells was determined.
82. […] This level of sensitivity was similar to that reported for other cell lines (Kanzawa et al. Cancer Res 50:5919-5924, 1990; Kojima et al. Cancer Res 58:4368-4374, 1998; and Kojima et al. J Clin Invest 101:1789-1796, 1998).

In the case of `CCc1c2c(nc3ccc(OC(=O)N4CCC(N5CCCCC5)CC4)cc13)-c1cc3c(c(=O)n1C2)COC(=O)[C@]3(O)CC` [CPT-11, Irinotecan], the induction of apoptosis [1] is reported as “high level of apoptosis”, the “intracellular accumulation of CPT-11” value (SW948CPTH cells [2]) is reported as “lower than the parent cell line SW948” and the “intracellular accumulation of CPT-11” value (SW948CPTL cells [3]) is reported as “lower than the parent cell line SW948”. For the same compound, the IC50 (SW948CPTL cells [4]; 168 h) was 4.8 µg/mL (≈ 8.18 µM), the IC50 (SW948CPTL cells [4]; 600 h) was 12.9 µg/mL (≈ 22 µM) and the IC50 (SW948CPTL cells [4]) was 16 µg/mL (≈ 27.3 µM). It also gave an IC50 (SW948CPTH cells [5]; 192 h, read-out: CPT-11 IC50, SW948CPTH exposed to 80 μg/ml CPT-11, 8 days when assayed, tested in presence of CPT-11) of 79 µg/mL, an IC50 (SW948CPTH cells [5]; 336 h, read-out: CPT-11 IC50, SW948CPTH exposed to 8 μg/ml CPT-11, 14 days when assayed, tested in presence of CPT-11) of 18.2 µg/mL and an IC50 (SW948CPTH cells [5]; 480 h, read-out: CPT-11 IC50, SW948CPTH exposed to 8 μg/ml CPT-11, 20 days when assayed, tested in presence of CPT-11) of 15.6 µg/mL. It also gave an IC50 (SW948CPTH cells [5]; 480 h, read-out: CPT-11 IC50, SW948CPTH exposed to 30 μg/ml CPT-11, 20 days when assayed, tested in presence of CPT-11) of 18 µg/mL, an IC50 (SW948CPTH cells [5]; 552 h, read-out: CPT-11 IC50, SW948CPTH exposed to 10 μg/ml CPT-11, 23 days when assayed, tested in presence of CPT-11) of 21.3 µg/mL and an IC50 (SW948CPTH cells [5]; 600 h, read-out: CPT-11 IC50, SW948CPTH exposed to 20 μg/ml CPT-11, 25 days when assayed, tested in presence of CPT-11) of 23.6 µg/mL. The IC50 (SW948CPTH cells [5]; […], read-out: CPT-11 IC50, SW948CPTH exposed to 30 μg/ml CPT-11, 19 days when assayed, tested in presence of CPT-11) was 21.3 µg/mL, the IC50 (SW948CPTH cells [5]; read-out: CPT-11 IC50, SW948CPTH exposed to 20 μg/ml CPT-11, 30 days when assayed, tested in presence of CPT-11) was 18.2 µg/mL and the IC50 (SW948CPTH cells [5]; read-out: CPT-11 IC50, SW948CPTH exposed to 20 μg/ml CPT-11, 51 days when assayed, tested in presence of CPT-11) was 24 µg/mL. For the same compound, the IC50 (SW948CPTH cells [5]; read-out: CPT-11 IC50, SW948CPTH exposed to 20 μg/ml CPT-11, 60 days, CPT-11 withdrawn for 33 days prior to IC50 determination) was 19 µg/mL (≈ 32.4 µM), the IC50 (SW948CPTH cells [5]; read-out: CPT-11 IC50, SW948CPTH exposed to 20 μg/ml CPT-11, 65 days when assayed, tested in presence of CPT-11) was 34 µg/mL and the IC50 (SW948CPTH cells [5]; read-out: CPT-11 IC50, SW948CPTH exposed to 30 μg/ml CPT-11, 47 days when assayed, tested in presence of CPT-11) was 19 µg/mL. For the same compound, the IC50 (SW948CPTH cells [5]; read-out: CPT-11 IC50, SW948CPTH exposed to 40 μg/ml CPT-11, 30 days when assayed, tested in presence of CPT-11) was 55 µg/mL, the IC50 (SW948CPTH cells [5]; read-out: CPT-11 IC50 Dose, SW948CPTH treated 20 μg/ml CPT-11 62 days, 5 days after removal of CPT-11) was 25 µg/mL (≈ 42.6 µM) and the IC50 (SW948CPTH cells [5]; read-out: CPT-11 IC50 Dose, SW948CPTH treated 20 μg/ml CPT-11 62 days, 21 days after removal of CPT-11) was 18.9 µg/mL (≈ 32.2 µM). It also gave an IC50 (SW948CPTH cells [5]; read-out: CPT-11 IC50 Dose, SW948CPTH treated 20 μg/ml CPT-11 62 days, 40 days after removal of CPT-11) of 19 µg/mL (≈ 32.4 µM), an IC50 (SW948CPTH cells [5]; read-out: CPT-11 IC50 Dose, SW948CPTH treated 20 μg/ml CPT-11 62 days, 45 days after removal of CPT-11) of 19.2 µg/mL (≈ 32.7 µM) and an IC50 (SW948CPTH cells [5]; read-out: CPT-11 IC50 Dose, SW948CPTH treated 20 μg/ml CPT-11 62 days, 68 days after removal of CPT-11) of 11.4 µg/mL (≈ 19.4 µM). The IC50 (SW948CPTH cells [5]; read-out: CPT-11 IC50 Dose, SW948CPTH treated 20 μg/ml CPT-11 62 days, 89 days after removal of CPT-11) was 13.4 µg/mL (≈ 22.8 µM), the “G0-G1(%)” value (SW948CPTH cells [6]; CPT-11 1 μg/ml) was 45.7 ± 6.2% and the “G2-M(%)” value (SW948CPTH cells [6]; CPT-11 1 μg/ml) was 8.3 ± 3.1%. The “S(%)” value (SW948CPTH cells [6]; CPT-11 1 μg/ml) was 46 ± 7.5%, the “G0-G1(%)” value (SW948CPTH cells [6]; CPT-11 2 μg/ml) was 44.6 ± 3.8% and the “G2-M(%)” value (SW948CPTH cells [6]; CPT-11 2 μg/ml) was 8.9 ± 1.9%. For the same compound, the “S(%)” value (SW948CPTH cells [6]; CPT-11 2 μg/ml) was 46.5 ± 3.9%, the “G0-G1(%)” value (SW948CPTH cells [6]; CPT-11 5 μg/ml) was 45.0 ± 3.0% and the “G2-M(%)” value (SW948CPTH cells [6]; CPT-11 5 μg/ml) was 12.2 ± 2.3%. For the same compound, the “S(%)” value (SW948CPTH cells [6]; CPT-11 5 μg/ml) was 42.8 ± 4.9%, the “change of cell cycle” value (SW948CPTH cells [6]; similar amount of CPT-11) was “did not cause any change” and the IC50 ([7]; read-out: CPT-11 IC50 Dose, SW948CPTH xenograft #16 (CPT-11 treated tumor), 134 days after implant) was 24.7 µg/mL (≈ 42.1 µM). For the same compound, the IC50 ([7]; read-out: CPT-11 IC50 Dose, SW948CPTH xenograft #51 (untreated tumor), 121 days after implant) was 18 µg/mL (≈ 30.7 µM), the IC50 ([7]; read-out: CPT-11 IC50 Dose, SW948CPTH xenograft #53 (untreated tumor), 124 days after implant) was 32.2 µg/mL (≈ 54.9 µM) and the IC50 ([7]; read-out: CPT-11 IC50 Dose, SW948CPTH xenograft #54 (untreated tumor), 103 days after implant) was 25.1 µg/mL (≈ 42.8 µM). The “G0-G1(%)” value (SW948CPTL cells [8]; CPT-11 1 μg/ml) was 50.0 ± 1.7%, the “G2-M(%)” value (SW948CPTL cells [8]; CPT-11 1 μg/ml) was 10.0 ± 1.4% and the “S(%)” value (SW948CPTL cells [8]; CPT-11 1 μg/ml) was 40.3 ± 2.4%. For the same compound, the “G2-M(%)” value (SW948CPTL cells [8]; CPT-11 2 μg/ml) was 11.2 ± 2.6%, the “S(%)” value (SW948CPTL cells [8]; CPT-11 2 μg/ml) was 43.1 ± 6.5% and the “G2-M(%)” value (SW948CPTL cells [8]; CPT-11 5 μg/ml) was 13.9 ± 2.2%. For the same compound, the “S(%)” value (SW948CPTL cells [8]; CPT-11 5 μg/ml) was 40.8 ± 6.4%, the “change of cell cycle” value (SW948CPTL cells [8]; similar amount of CPT-11) was “did not cause any change” and the IC50 (SW948 cells; SW948, read-out: CPT-11 IC50 concentration (colony formation)) was 2.8 µg/mL (≈ 4.77 µM). It also gave an IC50 (SW948 cells; read-out: CPT-11 IC50 of untreated SW948 cells, untreated SW948, mean value) of 2.1 ± 0.3 µg/mL (≈ 3.58 µM).
